# Article PMC10259201, “Mercapto-pyrimidines are reversible covalent inhibitors of the papain-like protease (PLpro) and inhibit SARS-CoV-2 (SCoV-2) replication” (RSC Advances, 2023)
# Where “and” joins values, the source holds several entries; their conditions need not be identical. Identical values can stand only once. Entries after “also recorded” stand apart in the source; their conditions may differ. Like-named read-outs stand apart in the source and are kept apart here.
# Tests used:
# PLpro from SCoV-2 [1] = target: PLpro from SCoV-2 (Severe acute respiratory syndrome coronavirus 2, UniProt P0DTD1); experiment: Fluorescent PLpro inhibition assay (RLRGG-AMC substrate), dose response; type: biochemical, SARS-CoV-2
# SARS-CoV-2 USA-WA1/2020 = experiment: SCoV-2 USA-WA1/2020 antiviral assay with plaque forming readout in Vero E6 cells; type: cell-based
# PLpro [2] = target: T1, PLpro (Severe acute respiratory syndrome coronavirus 2, UniProt P0DTD1); experiment: Surface plasmon resonance with immobilized His-tagged PLpro; type: binding, SARS-CoV-2
# PLpro [3] = target: T1, PLpro; experiment: Time dependent PLpro inhibition assay (pre-incubation); type: biochemical, SARS-CoV-2
# Excerpt: Compound 5 contains a mercaptopyrimidine fragment, which can potentially undergo addition–elimination reactions with nucleophiles. For example, Murugesan et al. recently identified a mercaptopyrimidine based inhibitor of tuberculosis cell growth, which reacted with glutathione under physiological conditions.[27,35] PLpro is a cysteine protease with a nucleophilic cysteine in its active site, which could potentially react with compound 5via an additional elimination reaction. We performed a time dependent PLpro inhibition assay with compound 5 to determine if pre-incubation time lowered its IC50. Pre-incubation time lowers the IC50 of covalent inhibitors because it gives more time for the protein to react with the inhibitor. In contrast, pre-incubation time frequently has no effect on the IC50 of non-covalent inhibitors because their koffs are generally on the timescale of second to minutes.
# The PLpro protein (50 nM) was preincubated with different concentration of inhibitor (0, 1, 2.5, 5, 10 and 20 μM) for different time points (0, 5, 10, 20, 35, 95, 125, 185 minutes). The substrate (50 μM) was added and measured the fluorescence. The data was analyzed using Enzyme – inhibition, GraphPad Prism.
# SARS-CoV-2-NLuc = type: cell-based; conditions: data not shown
# [4] = Cytotoxicity assay (resazurin); type: cell-based; conditions: African green monkey, Vero CCL-81 cells, Vero CCL-81, resazurin, read-out: cell viability
# Vero CCL-81 cells = experiment: Cytotoxicity assay (resazurin); type: cell-based; conditions: 50 μM, Vero CCL-81, resazurin
# SCoV2 PLpro = SCoV2 PLpro (Severe acute respiratory syndrome coronavirus 2, UniProt P0DTD1); experiment: Gel-based activity based protein profiling (IA-rhodamine / NHS-rhodamine); type: biochemical, SARS-CoV-2; conditions: pulse chase
# Procedure: We performed activity-based profiling experiments to determine if compound 5 covalently reacted with the cysteines or lysines of PLpro.[36] Iodoacetamide-rhodamine was used as the probe for cysteine reactivity analysis and NHS-rhodamine was the probe for investigating lysine reactivity on PLpro. A traditional pulse chase experiment was performed with PLpro and the rhodamine dyes, where PLpro was first incubated with compound 5 and then incubated with iodoacetamide-rhodamine or NHS-rhodamine. After the dye incubation, PLpro was run on a protein gel and imaged via fluorescence. […] The other thiols in PLpro are either disulfides, which are unreactive to nucleophiles, or zinc chelated and have diminished nucleophilicity.
# For gel-based ABPP experiments with PLpro, pure SCoV2 PLpro protein (0.1 μg per sample for IA-rhodamine and 0.05 μg for NHS-rhodamine) was pretreated with either DMSO vehicle or desired dosage of compound 5 at 37 °C for 1 hour in 25 μL PBS. […] Probe-labeled proteins were analyzed by in-gel rhodamine fluorescence using a ChemiDoc MP (Bio-Rad). Protein loading was assessed by Silver Staining.
# PLpro [5] = target: T1, PLpro; experiment: Jump dilution assay (reversibility of PLpro inhibition); type: biochemical, SARS-CoV-2
# Procedure: To investigate if compound 5 constitutes a novel class of RCI, we performed a jump dilution assay with PLpro, compound 5 and beta-mercaptoethanol (BMe). PLpro and compound 5 were mixed and allowed to react, diluted 25-fold in the presence of 5 mM BMe[38,39] and the inhibition of PLpro was measured.
# BMe is not a biological nucleophile, and we re-did the jump dilution assay in the presence of either 5 mM reduced glutathione (GSH) or 200 μM cysteine (their physiological concentrations)[40] to determine if the PLpro-compound 5 adduct would rapidly decompose in cells. […] In contrast, smaller thiols such as BMe and cysteine can apparently access the PLpro active site and can displace compound 5. […] In addition, the mercaptopryimidine ring can function as a size selective filter for thiols and this unique feature should allow it to find numerous applications in drug discovery.
# PLpro was mixed with compound 5 at the 10-fold higher concentration of IC50 (10 × IC50) and allowed to form protein-inhibitor complex at saturating conditions at room temperature. The complex was then rapidly diluted in a buffer supplemented with 5 mM reduced glutathione, 5 mM beta-mercaptoethanol (BMe), 200 μM cysteine to bring the compound's concentration of 1/10 × IC50. After 5 minutes of dilution, the substrate was added and incubated for 30 minutes. The fluorescent intensities were read at the excitation wavelength of 360 nm and emission wavelength of 460 nm.
# SCoV PLpro = test system: SCoV PLpro; set-up: method as in PMID 18852458; conditions: cited from earlier work
# PLpro from SCoV-2 [6] = test system: PLpro from SCoV-2; set-up: method as in PMID 33531496, PMID 32895623, PMID 33473130, PMID 34341772, PMID 32845033; conditions: cited from earlier work
# SCoV-2 [7] = test system: SCoV-2; set-up: method as in PMID 33531496, PMID 32895623, PMID 33473130, PMID 34341772, PMID 32845033; conditions: cited from earlier work
# SCoV-2 [8] = test system: SCoV-2; set-up: method as in PMID 33531496, PMID 32895623, PMID 33473130, PMID 34341772, PMID 32845033; conditions: oral delivery; cited from earlier work
# [9] = IC50 (PLpro inhibition, HTS hits), HTS hit dose response, 10 point 1:2 dilution from 40 μM, 50 nM PLpro, 50 μM RLRGG-AMC
# [10] = IC50 (PLpro inhibition, compound 5 and derivatives), hit exploration / SAR, compounds purchased from ChemDiv
compound,measurement,setting,value
Cc1nn(-c2ccccc2)c(OC(=O)C(C)C)c1Sc1ccccc1 [Compound 1],IC50,PLpro from SCoV-2 [1]; [9],0.815 µM
CNC(=O)c1sc(=S)n(-c2cc(Cl)ccc2OC)c1N [Compound 2],IC50,PLpro from SCoV-2 [1]; [9],0.985 µM
Cc1nnc(Sc2nc(Sc3nnc(C)s3)nc(Sc3nnc(C)s3)n2)s1 [Compound 4],IC50,PLpro from SCoV-2 [1]; [9],1.42 µM
CCSc1nc2sc3c(c2c(=O)n1CC)CCc1ccccc1-3 [Compound 5B],IC50,"PLpro from SCoV-2 [1]; hit exploration / SAR, compounds purchased from ChemDiv, read-out: IC50 (PLpro inhibition, compound 5 and derivatives)",5 µM and 4.99 µM
same,antiviral activity in Vero E6 cells by plaque assay,SARS-CoV-2 USA-WA1/2020,did not have any antiviral activity; also recorded: do not exhibit antiviral activity
C=CCSc1nc2sc3c(c2c(=O)n1CC)CCc1ccccc1-3 [Compound 5E],IC50,PLpro from SCoV-2 [1]; [10],0.9 µM and 0.853 µM and 0.85 µM
same,IC50 relative to compound 5 (times lower / fold higher potency),PLpro from SCoV-2 [1]; compared with compound 5,approximately 5 fold
same,antiviral activity in Vero E6 cells by plaque assay,SARS-CoV-2 USA-WA1/2020,did not have any antiviral activity; also recorded: do not exhibit antiviral activity
same,Kd,PLpro [2],8.3 µM
CCCSc1nc2sc3c(c2c(=O)n1CC)CCc1ccccc1-3 [Compound 5],IC50,PLpro from SCoV-2 [1]; [9],1.59 µM
same,IC50,PLpro from SCoV-2 [1]; [10],5.1 µM and 5.19 µM and 5 µM
same,IC50,"PLpro [3]; 3 hour pre-incubation with PLpro, read-out: IC50 of PLpro inhibition after 3 hour pre-incubation",0.9 µM
same,decrease in IC50 after pre-incubation,PLpro [3]; 3 hours pre-incubation vs none,10 fold
same,IC50,"PLpro [3]; no pre-incubation, read-out: IC50 of PLpro inhibition, no pre-incubation",9 µM
same,reduction of NLuc levels of infected cells,SARS-CoV-2-NLuc; 10 μM,3 fold
same,reduction of NLuc levels of infected cells,SARS-CoV-2-NLuc; 20 μM,7 fold
same,reduction in infectious virus levels (plaque forming assay),SARS-CoV-2 USA-WA1/2020; 10 μM,3 fold
same,reduction in infectious virus levels (plaque forming assay),SARS-CoV-2 USA-WA1/2020; 20 μM,22 fold
same,"viability at 72 h, 1 µM",[4]; 1 μM,> 85%
same,"viability at 72 h, 10 µM",[4]; 10 μM,> 85%
same,"viability at 72 h, 25 µM",[4]; 25 μM,> 85%
same,toxicity,Vero CCL-81 cells,significant toxicity
same,cysteine reactivity: blocking of iodoacetamide-rhodamine labelling of PLpro,SCoV2 PLpro; IA-rhodamine probe,prevents PLpro from reacting with iodo-acetamide; also recorded: able to prevent PLpro from reacting with iodo-acetamide
same,lysine reactivity: blocking of NHS-rhodamine labelling of PLpro,SCoV2 PLpro; NHS-rhodamine probe,unable to prevent PLpro from reacting with NHS-rhodamine
same,recovery of PLpro activity after dilution,PLpro [5]; 200 μM cysteine,can regenerate active PLpro; also recorded: recovered the activity of PLpro
same,recovery of PLpro activity after dilution,PLpro [5]; 5 mM reduced glutathione (GSH),cannot; also recorded: did not
same,recovery of PLpro activity after dilution,"PLpro [5]; diluted 25-fold with 5 mM BMe, 5 minutes",90%
same,recovery of PLpro activity after dilution,PLpro [5]; dilution in PBS,still inhibits PLpro after dilution with PBS
same,recovery of PLpro activity after dilution,"PLpro [5]; dilution in PBS, listed as compound 5",no effect on the activity of PLpro
same,Kd,"PLpro [2]; SPR, His-tagged PLpro on Ni-NTA chip, read-out: binding constant KD",21 µM
CCn1c(N)c(C(=O)Nc2ccccc2OC)sc1=S [Compound 6],IC50,PLpro from SCoV-2 [1]; [9],2.73 µM
CCOC(=O)c1sc(=S)n(-c2cc(OC)ccc2OC)c1N [Compound 7],IC50,PLpro from SCoV-2 [1]; [9],3.87 µM
CN(C)C(S)=Nc1nc2ccccc2s1 [Compound 8],IC50,PLpro from SCoV-2 [1]; [9],4.76 µM
COC(=O)c1ccc([C@@H]2Nc3c(Cl)cccc3[C@@H]3C=CC[C@@H]32)cc1 [Compound 9],IC50,PLpro from SCoV-2 [1]; [9],7.94 µM
Cc1ccc(-n2c(N)c(C(=O)N3CCCCC3)sc2=S)cc1 [Compound 10],IC50,PLpro from SCoV-2 [1]; [9],8.33 µM
Cc1ccc(N)cc1C(=O)N[C@H](C)c1cccc2ccccc12 [GRL0617],IC50 (SCoV PLpro),SCoV PLpro,low micromolar range
same,IC50 (PLpro from SCoV-2),PLpro from SCoV-2 [6],micromolar range
same,IC50 (viral replication in cells),SCoV-2 [7],micromolar range
same,antiviral activity against SCoV-2 in mice,SCoV-2 [8],moderate antiviral activity
"CCC(CC)COC(=O)[C@H](C)N[P@](=O)(OC[C@H]1O[C@@](C#N)(c2ccc3c(N)ncnn23)[C@H](O)[C@@H]1O)Oc1ccccc1 [Remdesivir, reference compound]","antiviral activity, positive control in plaque forming assay",SARS-CoV-2 USA-WA1/2020; 100 μM,potently inhibited the virus
